In publication PMC7894603 (Science translational medicine, 2020):

System: Kras and Trp53 mutant (KP) lung adenocarcinoma mouse model
Format: in vivo
Conditions: IT, urine 60-120 min; for change of KP/control reporter difference over 5, 7.5 and 10.5 weeks: MeanNormPARKP/MeanNormPARControl

Row | Sequence | change of KP/control reporter difference over 5, 7.5 and 10.5 weeks | urinary reporter in KP versus healthy mice (10.5 weeks after tumor initiation, mean-normalized PAR)
1 | GGLGPKGQTGC [PP07] | amplified over time | 
2 | GGSGSKIIGGGC [PP11] | amplified over time | most significantly enriched reporter
